For this assay, the system named is Rattus norvegicus. Nature of the assay: In-vivo substrate activity at SULT1A in brain of Sprague-Dawley rat with renal hypertension a at 0.5 to 2 mCi dosed via bolus injection measured after 60 mins post dose by microPET imaging method. It counts as functional, organism-based. The note with it: tested as the 18F-labelled form.

Here are results for one compound from ChEMBL document CHEMBL4482315, “In vivo imaging of sulfotransferases” (2013).

Molecules are shown by their SMILES. The source made the active and inactive calls. The calls are words filed in the database; no cut-off is given here.

With `O=[N+]([O-])c1cc(O)ccc1F`, the outcome was Active.
